11 compounds from US12655125B2 (SIRONAX LTD., priority 2020, dated 2026) can be followed below.

SMILES strings stand for the structures. Like-named read-outs stand apart in the source and are kept apart here.

The test has as its system HT-29 cells. Description: HT29 Cells 0FBS Assay In Vitro (TNF-α/SMAC mimetic/zVAD-FMK induced necroptosis, CellTiter-Glo cell viability). It is filed as cell-based. To be noted: Homo sapiens. In outline:
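HT-29 cells (5,000/well, seeded overnight) in serum-free McCoy's 5A were stimulated with TNF-α 10 ng/ml, SMAC mimetic 6 μM and zVAD-FMK 10 μM to induce necroptosis. Compound added as 10-point 3-fold series for 20 h at 37° C. CellTiter-Glo luminescence gives viability; EC50 is geometric mean of duplicate dose-responses.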

Setting [1] is: HT-29 cells, FBS free medium, TNF-α (10 ng/ml), SMAC mimetic (6 uM), zVAD-FMK (10 μM), 20 hours, geometric mean EC50, read-out: Cell activity (EC50) of Compounds 117-281.
The mark [2] stands for this setting: HT-29 cells, FBS free medium, TNF-α (10 ng/ml), SMAC mimetic (6 uM), zVAD-FMK (10 μM), 20 hours, geometric mean EC50, read-out: Cell activity (EC50) of Compounds 1-116.

On to `Cc1cc(C)n(-c2cc(OC3CN(C(=O)N4N=CC[C@H]4c4cc(F)cc(F)c4)C3)c(F)cn2)n1` [compound 221, (S)-(5-(3,5-difluorophenyl)-4,5-dihydro-1H-pyrazol-1-yl)(3-((2-(3,5-dimethyl-1H-pyrazol-1-yl)-5-fluoropyridin-4-yl)oxy)azetidin-1-yl)methanone], for which the EC50 under setting [1] was in the range of 0.1 to 100 nM. In the case of `Cc1c(N2CC(O)C2)nn(C)c1-c1cc(OC2CN(C(=O)N3N=CC[C@H]3c3cc(F)cc(F)c3)C2)c(F)cn1` [compound 213, (S)-(5-(3,5-difluorophenyl)-4,5-dihydro-1H-pyrazol-1-yl)(3-((5-fluoro-2-(3-(3-hydroxyazetidin-1-yl)-1,4-dimethyl-1H-pyrazol-5-yl)pyridin-4-yl)oxy)azetidin-1-yl)methanone], the EC50 under setting [1] fell in the range of 0.1 to 100 nM. With `Cc1nn(-c2cc(OC3CN(C(=O)N4N=CC[C@H]4c4cc(F)cc(F)c4)C3)c(F)cn2)c(C)c1C` [compound 251, (S)-(5-(3,5-difluorophenyl)-4,5-dihydro-1H-pyrazol-1-yl)(3-((5-fluoro-2-(3,4,5-trimethyl-1H-pyrazol-1-yl)pyridin-4-yl)oxy)azetidin-1-yl)methanone], the EC50 under setting [1] lay in the range of 0.1 to 100 nM. With `Cc1csnc1-c1ncc(F)c(OC2CN(C(=O)N3N=CC[C@H]3c3cc(F)cc(F)c3)C2)n1` [compound 18, (S)-(5-(3,5-difluorophenyl)-4,5-dihydro-1H-pyrazol-1-yl)(3-((5-fluoro-2-(4-methylisothiazol-3-yl)pyrimidin-4-yl)oxy)azetidin-1-yl)methanone], under setting [2], the EC50 fell in the range of 0.1 to 100 nM. Consider `Cc1nn(CCO)c(C)c1-c1cc(OC2CN(C(=O)N3N=CC[C@H]3c3cc(F)cc(F)c3)C2)c(F)cn1` [compound 117, (S)-(5-(3,5-difluorophenyl)-4,5-dihydro-1H-pyrazol-1-yl)(3-((5-fluoro-2-(1-(2-hydroxyethyl)-3,5-dimethyl-1H-pyrazol-4-yl)pyridin-4-yl)oxy)azetidin-1-yl)methanone], for which, where the note is “HT-29, 20 h, read-out: Cell activity (EC50) of Compounds 117-281”, the concentration giving a half-maximal response (EC50) lay within 0.1 to 100 nM. For the compound `Cc1nn(-c2ccc(F)c(OC3CN(C(=O)N4N=CC[C@H]4c4cc(F)cc(F)c4)C3)n2)c(C)c1C(N)=O` [compound 275], the EC50 under setting [1] lay within 0.1 to 100 nM. Regarding `Cc1ncn(C)c1-c1ccc(F)c(OC2CN(C(=O)N3N=CC[C@H]3c3cc(F)cc(F)c3)C2)n1` [compound 44, (S)-(5-(3,5-difluorophenyl)-4,5-dihydro-1H-pyrazol-1-yl)(3-((6-(1,4-dimethyl-1H-imidazol-5-yl)-3-fluoropyridin-2-yl)oxy)azetidin-1-yl)methanone], under setting [2], the EC50 was 0.1 to 100 nM. `Cc1noc(C)c1-c1cc(OC2CN(C(=O)N3N=CC[C@H]3c3cc(F)cc(F)c3)C2)c(F)cn1` [compound 268, (S)-(5-(3,5-difluorophenyl)-4,5-dihydro-1H-pyrazol-1-yl)(3-((2-(3,5-dimethylisoxazol-4-yl)-5-fluoropyridin-4-yl)oxy)azetidin-1-yl)methanone]: under setting [1], the EC50 was in the range of 0.1 to 100 nM. For `Cc1nnc(-c2ccc(F)c(OC3CN(C(=O)N4N=CC[C@H]4c4cc(F)cc(F)c4)C3)n2)s1` [compound 24, (S)-(5-(3,5-difluorophenyl)-4,5-dihydro-1H-pyrazol-1-yl)(3-((3-fluoro-6-(5-methyl-1,3,4-thiadiazol-2-yl)pyridin-2-yl)oxy)azetidin-1-yl)methanone], the EC50 under setting [2] is 0.1 to 100 nM.

On to `Cc1scnc1-c1ncc(F)c(OC2CN(C(=O)N3N=CC[C@H]3c3cc(F)cc(F)c3)C2)n1` [compound 12, (S)-(5-(3,5-difluorophenyl)-4,5-dihydro-1H-pyrazol-1-yl)(3-((5-fluoro-2-(5-methylthiazol-4-yl)pyrimidin-4-yl)oxy)azetidin-1-yl)methanone], for which, under setting [2], the EC50 was in the range of 0.1 to 100 nM. With `Cc1nn(-c2cc(OC3CN(C(=O)N4N=CC[C@H]4c4cc(F)cc(F)c4)C3)c(F)cn2)c(C)c1C(C)(C)C(N)=O` [compound 280, (S)-2-(1-(4-((1-(5-(3,5-difluorophenyl)-4,5-dihydro-1H-pyrazole-1-carbonyl)azetidin-3-yl)oxy)-5-fluoropyridin-2-yl)-3,5-dimethyl-1H-pyrazol-4-yl)-2-methylpropanamide], the EC50 under setting [1] was 0.1 to 100 nM.

For orientation: EC50 means the midpoint of the concentration-response curve.
